Among the data in the supplement of paper PMC10627819 are fitness and Bliss interaction score values, retold here.

In experiment [1] the test system is S. aureus DSM 20231. Nature of the experiment: fitness (endpoint OD595 vs no drug) (fraction); higher = more growth. In outline: (§1)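 With the first reading as background, OD595 was measured every 30 min for 14 h in 384-well plates kept at 37 °C and inoculated at OD595 0.01. TSB, LB Lennox or CY was the medium. Fitness is the optical density at the transition into stationary phase divided by the robust mean of no-drug control wells, with a cap of 1.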

A further experiment has as its system B. subtilis 168. Nature of the experiment: Bliss interaction score (quartile over a dose matrix) (fitness difference); higher = more antagonism (negative = synergy). In outline: (§2)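 Combination data were used to infer fitness under each single drug. Fitness is the OD595 at entry into stationary phase divided by the robust mean of the plate's no-drug wells, with a cap of 1. The Bliss score is the observed minus the expected product fitness, summarised by quartiles over technical, biological and donor/recipient replicates.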

Experiment [2] concerns S. aureus DSM 20231. Described as above. In outline:
as §2

In a further experiment the test system is S. pneumoniae D39V. Described as above. A digest of the protocol: as §2
The test system of experiment [3] is S. aureus Newman. The experiment is described as above. A digest of the protocol: as §2
For experiment [4], the system named is S. aureus Newman. Nature of the experiment: fitness (endpoint OD595 vs no drug) (fraction); higher = more growth. A digest of the protocol: as §1
The mark [5] stands for this setting: first compound 0.75 µg/mL, partner 12.5 µg/mL.
The mark [6] stands for this setting: first compound 0.75 µg/mL, partner 25 µg/mL.
Where [7] appears, read: first compound 0.75 µg/mL, partner 50 µg/mL.
The mark [8] stands for this setting: first compound 1.5 µg/mL, partner 12.5 µg/mL.
[9] abbreviates: first compound 1.5 µg/mL, partner 50 µg/mL.
Where [10] appears, read: first compound 3 µg/mL, partner 12.5 µg/mL.

Molecules are shown by their SMILES.
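Throughout, for Bliss interaction score (quartile over a dose matrix): first quartile when negative (synergy) and third quartile when positive (antagonism).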

Consider `O=C(N[C@H](CO)[C@H](O)c1ccc([N+](=O)[O-])cc1)C(Cl)Cl` [Chloramphenicol] + COc1cc(Cc2cnc(N)nc2N)cc(OC)c1OC [Trimethoprim], for which the fitness in the experiment on S. aureus DSM 20231 [1] (first compound 0.75 µg/mL, partner 0.125 µg/mL) turned out to be 0.613; in the experiment on S. aureus DSM 20231 [1] (first compound 0.75 µg/mL, partner 0.25 µg/mL) it was 0.648; with S. aureus DSM 20231 [1] (first compound 0.75 µg/mL, partner 0.5 µg/mL) it was 0.48; in the experiment with S. aureus DSM 20231 [1] (first compound 0.75 µg/mL, partner 1 µg/mL), 0.0816; in the experiment on S. aureus DSM 20231 [1] (first compound 1.5 µg/mL, partner 0.125 µg/mL) it was 0.499; with S. aureus DSM 20231 [1] (first compound 1.5 µg/mL, partner 0.25 µg/mL) it was 0.492. Moreover, the fitness in the experiment on S. aureus DSM 20231 [1] (first compound 1.5 µg/mL, partner 0.5 µg/mL) stood at 0.405; with S. aureus DSM 20231 [1] (first compound 3 µg/mL, partner 0.125 µg/mL), 0.0821; with S. aureus DSM 20231 [1] (first compound 3 µg/mL, partner 0.25 µg/mL), 0.0908; in the experiment with S. aureus DSM 20231 [1] (first compound 3 µg/mL, partner 0.5 µg/mL), 0.0866; in the experiment with S. aureus DSM 20231 [1] (first compound 3 µg/mL, partner 1 µg/mL) it was 0.0882. Further, the Bliss interaction score in the experiment on B. subtilis 168 is 0.0616; in the experiment on S. aureus DSM 20231 [2], 0.133; in the experiment on S. pneumoniae D39V it was -0.081.
As to `O=C(N[C@H](CO)[C@H](O)c1ccc([N+](=O)[O-])cc1)C(Cl)Cl` [Chloramphenicol] + C[C@@H](O)[C@H]1C(=O)N2C(C(=O)O)=C(SCCNC=N)C[C@H]12 [Imipenem], the Bliss interaction score is 0.0442 with S. aureus DSM 20231 [2], -0.0316 in the experiment with S. aureus Newman [3] and -0.0662 with S. pneumoniae D39V.
With `O=C(N[C@H](CO)[C@H](O)c1ccc([N+](=O)[O-])cc1)C(Cl)Cl` [Chloramphenicol] + C[C@H]1COc2c(N3CCN(C)CC3)c(F)cc3c(=O)c(C(=O)O)cn1c23 [Levofloxacin], the Bliss interaction score amounted to 0.0387 with B. subtilis 168, 0.0741 with S. aureus DSM 20231 [2] and 0.0655 in the experiment with S. pneumoniae D39V.
For `O=C(N[C@H](CO)[C@H](O)c1ccc([N+](=O)[O-])cc1)C(Cl)Cl` [Chloramphenicol] + O=C1CN(/N=C/c2ccc([N+](=O)[O-])o2)C(=O)N1 [Nitrofurantoin], the figures for the Bliss interaction score in the experiment on S. aureus DSM 20231 [2], in the experiment on S. aureus Newman [3] and with S. pneumoniae D39V were -0.0404, -0.0842 and -0.157, respectively.
On to `O=C(N[C@H](CO)[C@H](O)c1ccc([N+](=O)[O-])cc1)C(Cl)Cl` [Chloramphenicol] + O=C(O[C@@H]1Cc2c(O)cc(O)cc2O[C@@H]1c1cc(O)c(O)c(O)c1)c1cc(O)c(O)c(O)c1 [EGCG], for which the fitness in the experiment with S. aureus DSM 20231 [1] (setting [5]) came out at 0.653; with S. aureus DSM 20231 [1] (setting [6]) it was 0.646; with S. aureus DSM 20231 [1] (setting [7]), 0.669; in the experiment with S. aureus DSM 20231 [1] (setting [8]), 0.56; in the experiment with S. aureus DSM 20231 [1] (first compound 1.5 µg/mL, partner 25 µg/mL), 0.572; in the experiment with S. aureus DSM 20231 [1] (setting [9]), 0.494. Also, the fitness in the experiment on S. aureus DSM 20231 [1] (setting [10]) was 0.15; in the experiment with S. aureus DSM 20231 [1] (first compound 3 µg/mL, partner 25 µg/mL), 0.136; with S. aureus DSM 20231 [1] (first compound 3 µg/mL, partner 50 µg/mL), 0.0905; in the experiment with S. aureus Newman [4] (setting [5]) it was 0.649; in the experiment with S. aureus Newman [4] (setting [6]) it was 0.699; in the experiment with S. aureus Newman [4] (setting [7]), 0.699. The fitness with S. aureus Newman [4] (setting [8]) turned out to be 0.602; in the experiment on S. aureus Newman [4] (setting [9]), 0.509; with S. aureus Newman [4] (setting [10]), 0.189. Besides, the Bliss interaction score is 0.103 in the experiment on B. subtilis 168, 0.0831 with S. aureus DSM 20231 [2] and -0.0762 in the experiment on S. pneumoniae D39V.
For `O=C(O[C@@H]1Cc2c(O)cc(O)cc2O[C@@H]1c1cc(O)c(O)c(O)c1)c1cc(O)c(O)c(O)c1` [EGCG] + CN1CCC[C@H]1c1cccnc1 [Nicotine], in the experiment on S. aureus DSM 20231 [2], the Bliss interaction score is -0.157.
Same read-out and setting: under `CC(=O)O[C@H]1C[C@@]2(C)[C@@H](C[C@@H](O)[C@H]3[C@@]4(C)CC[C@@H](O)[C@@H](C)[C@@H]4CC[C@@]32C)/C1=C(\CCC=C(C)C)C(=O)O` [Fusidic acid] + CC(C)(O)c1ccccc1CC[C@@H](SCC1(CC(=O)O)CC1)c1cccc(/C=C/c2ccc3ccc(Cl)cc3n2)c1 [Montelukast] stands -0.241; under `CC(=O)O[C@H]1C[C@@]2(C)[C@@H](C[C@@H](O)[C@H]3[C@@]4(C)CC[C@@H](O)[C@@H](C)[C@@H]4CC[C@@]32C)/C1=C(\CCC=C(C)C)C(=O)O` [Fusidic acid] + C[C@H]1C[C@@H]2[C@H]([C@@H](O)C[C@@]3(C)[C@H]2CC[C@]3(O)C(=O)CO)[C@@]2(C)C=CC(=O)C=C12 [Methylprednisolone], -0.127; under `CC(=O)O[C@H]1C[C@@]2(C)[C@@H](C[C@@H](O)[C@H]3[C@@]4(C)CC[C@@H](O)[C@@H](C)[C@@H]4CC[C@@]32C)/C1=C(\CCC=C(C)C)C(=O)O` [Fusidic acid] + Cc1c(Cl)cccc1Nc1ccccc1C(=O)O [Tolfenamic], 0.16.
With `CCC[C@@H]1C[C@@H](C(=O)N[C@@H]([C@H]2O[C@H](SC)[C@H](O)[C@@H](O)[C@H]2O)[C@@H](C)O)N(C)C1` [Lincomycin] + CC(C)(O)c1ccccc1CC[C@@H](SCC1(CC(=O)O)CC1)c1cccc(/C=C/c2ccc3ccc(Cl)cc3n2)c1 [Montelukast], the Bliss interaction score in the experiment on S. aureus DSM 20231 [2] was -0.268.
With `CCC[C@@H]1C[C@@H](C(=O)N[C@@H]([C@H]2O[C@H](SC)[C@H](O)[C@@H](O)[C@H]2O)[C@@H](C)O)N(C)C1` [Lincomycin] + CCCSc1nc(N[C@@H]2C[C@H]2c2ccc(F)c(F)c2)c2nnn([C@@H]3C[C@H](OCCO)[C@@H](O)[C@H]3O)c2n1 [Ticagrelor], the Bliss interaction score with S. aureus DSM 20231 [2] is -0.385.
As for `CCC[C@@H]1C[C@@H](C(=O)N[C@@H]([C@H]2O[C@H](SC)[C@H](O)[C@@H](O)[C@H]2O)[C@@H](C)O)N(C)C1` [Lincomycin] + C[C@H]1C[C@@H]2[C@H]([C@@H](O)C[C@@]3(C)[C@H]2CC[C@]3(O)C(=O)CO)[C@@]2(C)C=CC(=O)C=C12 [Methylprednisolone], the Bliss interaction score in the experiment on S. aureus DSM 20231 [2] was -0.248.
Turning to `CCC[C@@H]1C[C@@H](C(=O)N[C@@H]([C@H]2O[C@H](SC)[C@H](O)[C@@H](O)[C@H]2O)[C@@H](C)O)N(C)C1` [Lincomycin] + Cc1c(C)c2c(c(C)c1O)CCC(C)(COc1ccc(CC3SC(=O)NC3=O)cc1)O2 [Troglitazone], the Bliss interaction score in the experiment on S. aureus DSM 20231 [2] was found to be 0.222.
As for `CCC[C@@H]1C[C@@H](C(=O)N[C@@H]([C@H]2O[C@H](SC)[C@H](O)[C@@H](O)[C@H]2O)[C@@H](C)O)N(C)C1` [Lincomycin] + Cc1c(Cl)cccc1Nc1ccccc1C(=O)O [Tolfenamic], the Bliss interaction score in the experiment on S. aureus DSM 20231 [2] is -0.244.
For the molecule `CCC[C@@H]1C[C@@H](C(=O)N[C@@H]([C@H]2O[C@H](SC)[C@H](O)[C@@H](O)[C@H]2O)[C@@H](C)O)N(C)C1` [Lincomycin] + Cc1cccc(CN2CCN(C(c3ccccc3)c3ccc(Cl)cc3)CC2)c1 [Meclizine], the Bliss interaction score in the experiment with S. aureus DSM 20231 [2] was 0.278.
Regarding `CCC[C@@H]1C[C@@H](C(=O)N[C@@H]([C@H]2O[C@H](SC)[C@H](O)[C@@H](O)[C@H]2O)[C@@H](C)O)N(C)C1` [Lincomycin] + O=C(O)Cc1cc(I)c(Oc2ccc(O)c(I)c2)c(I)c1 [Tiratricol], in the experiment with S. aureus DSM 20231 [2], the Bliss interaction score amounted to 0.233.
Consider `COc1c(N2C[C@@H]3CCCN[C@@H]3C2)c(F)cc2c(=O)c(C(=O)O)cn(C3CC3)c12` [Moxifloxacin] + Cc1c(Cl)cccc1Nc1ccccc1C(=O)O [Tolfenamic], for which, in the experiment with S. aureus DSM 20231 [2], the Bliss interaction score is -0.12.
Same read-out and setting: under `O=C1CN(/N=C/c2ccc([N+](=O)[O-])o2)C(=O)N1` [Nitrofurantoin] + CCCSc1nc(N[C@@H]2C[C@H]2c2ccc(F)c(F)c2)c2nnn([C@@H]3C[C@H](OCCO)[C@@H](O)[C@H]3O)c2n1 [Ticagrelor] stands -0.277; under `O=C1CN(/N=C/c2ccc([N+](=O)[O-])o2)C(=O)N1` [Nitrofurantoin] + CCCc1nc2c(C)cc(-c3nc4ccccc4n3C)cc2n1Cc1ccc(-c2ccccc2C(=O)O)cc1 [Telmisartan], -0.216.
On to `C/C(=C\C(=O)OCCCCCCCCC(=O)O)C[C@@H]1OC[C@H](C[C@@H]2O[C@H]2[C@@H](C)[C@H](C)O)[C@@H](O)[C@H]1O` [Pseudomonic acid] + CCCSc1nc(N[C@@H]2C[C@H]2c2ccc(F)c(F)c2)c2nnn([C@@H]3C[C@H](OCCO)[C@@H](O)[C@H]3O)c2n1 [Ticagrelor], for which the Bliss interaction score in the experiment on S. aureus DSM 20231 [2] was 0.241.
